# Tests used:
# Experiment in all cases: KINOMEscan scanMAX
# Assay type in all cases: binding
# Details in all cases: read-out: Percent Control
# BMX = target: T1, BMX (Homo sapiens, UniProt P51813)
# T1 construct: purchased Eurofins Discovery (DiscoverX KINOMEscan scanMAX)
# Procedure: (§1) The kinome-wide binding assay was performed by Eurofins Discovery using the scanMAX screening platform. More information can be found on the Eurofins Discovery Web site.
# CAMK2A = target: T2, CAMK2A (Homo sapiens, UniProt Q9UQM7)
# T2 construct: purchased Eurofins Discovery (DiscoverX KINOMEscan scanMAX)
# T2 sequence (Q9UQM7 whole entry): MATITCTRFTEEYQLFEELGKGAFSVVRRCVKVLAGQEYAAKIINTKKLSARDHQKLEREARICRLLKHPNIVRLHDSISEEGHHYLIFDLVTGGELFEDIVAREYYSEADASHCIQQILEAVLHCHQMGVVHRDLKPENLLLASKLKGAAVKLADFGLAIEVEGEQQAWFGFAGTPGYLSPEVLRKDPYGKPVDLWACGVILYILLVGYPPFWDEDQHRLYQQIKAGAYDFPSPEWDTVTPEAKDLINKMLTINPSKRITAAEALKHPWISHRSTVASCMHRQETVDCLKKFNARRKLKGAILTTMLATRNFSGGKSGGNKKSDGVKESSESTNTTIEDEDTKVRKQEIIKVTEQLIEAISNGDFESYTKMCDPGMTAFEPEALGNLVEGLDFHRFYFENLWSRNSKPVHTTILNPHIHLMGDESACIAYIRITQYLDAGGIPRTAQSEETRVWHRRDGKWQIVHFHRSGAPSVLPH
# Procedure: as §1
# CDK3 = target: T3, CDK3 (Homo sapiens, UniProt Q00526)
# T3 construct: purchased Eurofins Discovery (DiscoverX KINOMEscan scanMAX)
# T3 sequence (Q00526 whole entry): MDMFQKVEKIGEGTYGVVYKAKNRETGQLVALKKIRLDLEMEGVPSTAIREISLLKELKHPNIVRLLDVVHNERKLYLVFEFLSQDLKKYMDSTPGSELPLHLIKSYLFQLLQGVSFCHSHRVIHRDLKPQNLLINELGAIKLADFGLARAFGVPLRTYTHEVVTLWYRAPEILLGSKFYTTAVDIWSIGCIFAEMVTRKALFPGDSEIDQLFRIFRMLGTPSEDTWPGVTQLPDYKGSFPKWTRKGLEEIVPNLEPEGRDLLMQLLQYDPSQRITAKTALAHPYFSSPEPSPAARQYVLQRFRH
# Procedure: as §1
# CHEK2 = target: T4, CHEK2 (Homo sapiens, UniProt O96017)
# T4 construct: purchased Eurofins Discovery (DiscoverX KINOMEscan scanMAX)
# Procedure: as §1
# CSNK1G3 = target: T5, CSNK1G3 (Homo sapiens, UniProt Q9Y6M4)
# T5 construct: purchased Eurofins Discovery (DiscoverX KINOMEscan scanMAX)
# Procedure: as §1
# CTK = target: T6, CTK (Homo sapiens, UniProt P42679)
# T6 construct: purchased Eurofins Discovery (DiscoverX KINOMEscan scanMAX)
# Procedure: as §1
# EPHA7 = target: T7, EPHA7 (Homo sapiens, UniProt Q15375)
# T7 construct: purchased Eurofins Discovery (DiscoverX KINOMEscan scanMAX)
# T7 sequence (Q15375 28-998): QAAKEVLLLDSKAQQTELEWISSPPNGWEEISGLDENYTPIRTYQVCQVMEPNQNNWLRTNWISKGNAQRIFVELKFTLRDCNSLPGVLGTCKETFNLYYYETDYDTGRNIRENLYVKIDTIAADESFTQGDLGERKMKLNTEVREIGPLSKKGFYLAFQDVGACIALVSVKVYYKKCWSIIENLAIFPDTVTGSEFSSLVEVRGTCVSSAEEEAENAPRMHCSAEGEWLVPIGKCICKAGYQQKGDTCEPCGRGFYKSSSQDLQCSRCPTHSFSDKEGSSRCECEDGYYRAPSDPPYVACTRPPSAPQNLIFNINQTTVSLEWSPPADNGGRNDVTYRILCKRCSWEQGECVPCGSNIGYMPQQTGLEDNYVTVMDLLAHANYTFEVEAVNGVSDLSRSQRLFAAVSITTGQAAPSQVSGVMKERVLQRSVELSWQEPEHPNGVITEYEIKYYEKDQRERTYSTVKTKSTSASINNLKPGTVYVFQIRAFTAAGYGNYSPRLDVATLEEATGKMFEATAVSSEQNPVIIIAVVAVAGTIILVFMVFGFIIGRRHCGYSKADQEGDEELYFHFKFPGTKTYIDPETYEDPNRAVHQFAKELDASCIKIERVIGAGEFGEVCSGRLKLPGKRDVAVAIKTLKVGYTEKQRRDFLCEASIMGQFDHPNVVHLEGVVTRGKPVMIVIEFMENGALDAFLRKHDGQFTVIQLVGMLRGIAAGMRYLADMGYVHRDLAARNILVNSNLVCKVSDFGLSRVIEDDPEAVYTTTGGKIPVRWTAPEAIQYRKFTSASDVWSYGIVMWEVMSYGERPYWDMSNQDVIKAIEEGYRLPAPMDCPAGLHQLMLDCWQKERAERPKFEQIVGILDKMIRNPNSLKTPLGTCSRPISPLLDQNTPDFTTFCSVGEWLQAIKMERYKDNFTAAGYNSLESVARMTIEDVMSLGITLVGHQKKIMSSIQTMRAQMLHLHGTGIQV
# Procedure: as §1
# EPHA8 = target: T8, EPHA8 (Homo sapiens, UniProt P29322)
# T8 construct: purchased Eurofins Discovery (DiscoverX KINOMEscan scanMAX)
# Procedure: as §1
# EPHB1 = target: T9, EPHB1 (Homo sapiens, UniProt P54762)
# T9 construct: purchased Eurofins Discovery (DiscoverX KINOMEscan scanMAX)
# T9 sequence (P54762 18-984): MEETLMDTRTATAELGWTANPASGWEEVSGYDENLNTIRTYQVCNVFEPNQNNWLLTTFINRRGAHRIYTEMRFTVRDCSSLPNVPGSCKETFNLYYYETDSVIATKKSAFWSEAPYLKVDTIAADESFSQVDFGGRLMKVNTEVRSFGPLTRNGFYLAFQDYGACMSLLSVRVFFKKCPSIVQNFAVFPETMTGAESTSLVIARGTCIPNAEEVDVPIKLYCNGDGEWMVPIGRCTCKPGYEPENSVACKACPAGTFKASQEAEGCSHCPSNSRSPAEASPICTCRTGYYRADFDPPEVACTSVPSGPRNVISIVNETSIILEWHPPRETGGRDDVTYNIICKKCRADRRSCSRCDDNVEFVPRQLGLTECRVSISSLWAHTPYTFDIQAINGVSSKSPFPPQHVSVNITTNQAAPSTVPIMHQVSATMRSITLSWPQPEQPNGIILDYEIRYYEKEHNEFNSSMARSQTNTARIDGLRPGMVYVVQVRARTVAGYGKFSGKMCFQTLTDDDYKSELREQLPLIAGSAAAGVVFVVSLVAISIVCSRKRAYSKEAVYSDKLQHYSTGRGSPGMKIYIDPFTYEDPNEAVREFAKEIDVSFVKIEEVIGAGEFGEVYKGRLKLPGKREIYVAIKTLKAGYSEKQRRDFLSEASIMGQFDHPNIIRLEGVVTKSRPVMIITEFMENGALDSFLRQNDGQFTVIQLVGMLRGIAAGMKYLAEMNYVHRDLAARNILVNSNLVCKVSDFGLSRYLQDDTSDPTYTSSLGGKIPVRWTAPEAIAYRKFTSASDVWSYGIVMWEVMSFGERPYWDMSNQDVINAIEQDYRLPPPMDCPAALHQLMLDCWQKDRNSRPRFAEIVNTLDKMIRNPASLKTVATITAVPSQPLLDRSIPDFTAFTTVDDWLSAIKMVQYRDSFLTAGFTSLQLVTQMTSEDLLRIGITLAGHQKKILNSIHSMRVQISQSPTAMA
# Procedure: as §1
# ERK8 = target: T10, ERK8 (Homo sapiens, UniProt Q8TD08)
# T10 construct: purchased Eurofins Discovery (DiscoverX KINOMEscan scanMAX)
# Procedure: as §1
# FLT3 = target: T11, FLT3 (Homo sapiens, UniProt P36888)
# T11 construct: purchased Eurofins Discovery (DiscoverX KINOMEscan scanMAX)
# Procedure: as §1
# FLT3(N841I) = target: T12, FLT3(N841I) (Homo sapiens, UniProt P36888, N841I)
# T12 construct: purchased Eurofins Discovery (DiscoverX KINOMEscan scanMAX)
# Procedure: as §1
# FLT3-autoinhibited = target: T13, FLT3-autoinhibited (Homo sapiens, UniProt P36888)
# T13 construct: purchased Eurofins Discovery (DiscoverX KINOMEscan scanMAX)
# Procedure: as §1
# GRK3 = target: T14, GRK3 (Homo sapiens, UniProt P35626)
# T14 construct: purchased Eurofins Discovery (DiscoverX KINOMEscan scanMAX)
# Procedure: as §1
# HIPK4 = target: T15, HIPK4 (Homo sapiens, UniProt Q8NE63)
# T15 construct: purchased Eurofins Discovery (DiscoverX KINOMEscan scanMAX)
# Procedure: as §1
# HPK1 = target: T16, HPK1 (Homo sapiens, UniProt Q92918)
# T16 construct: purchased Eurofins Discovery (DiscoverX KINOMEscan scanMAX)
# Procedure: as §1
# [1] = target: T17, JAK3(JH1domain-catalytic) (Homo sapiens, UniProt P52333)
# T17 construct: JAK3(JH1domain-catalytic); purchased Eurofins Discovery (DiscoverX KINOMEscan scanMAX)
# Procedure: as §1
# LTK = target: T18, LTK (Homo sapiens, UniProt P29376)
# T18 construct: purchased Eurofins Discovery (DiscoverX KINOMEscan scanMAX)
# Procedure: as §1
# MAP3K4 = target: T19, MAP3K4 (Homo sapiens, UniProt Q9Y6R4)
# T19 construct: purchased Eurofins Discovery (DiscoverX KINOMEscan scanMAX)
# Procedure: as §1
# MARK1 = target: T20, MARK1 (Homo sapiens, UniProt Q9P0L2)
# T20 construct: purchased Eurofins Discovery (DiscoverX KINOMEscan scanMAX)
# Procedure: as §1
# MEK5 = target: T21, MEK5 (Homo sapiens, UniProt Q13163)
# T21 construct: purchased Eurofins Discovery (DiscoverX KINOMEscan scanMAX)
# Procedure: as §1
# MKNK2 = target: T22, MKNK2 (Homo sapiens, UniProt Q9HBH9)
# T22 construct: purchased Eurofins Discovery (DiscoverX KINOMEscan scanMAX)
# Procedure: as §1
# NLK = target: T23, NLK (Homo sapiens, UniProt Q9UBE8)
# T23 construct: purchased Eurofins Discovery (DiscoverX KINOMEscan scanMAX)
# Procedure: as §1
# PAK2 = target: T24, PAK2 (Homo sapiens, UniProt Q13177)
# T24 construct: purchased Eurofins Discovery (DiscoverX KINOMEscan scanMAX)
# T24 sequence (Q13177 whole entry): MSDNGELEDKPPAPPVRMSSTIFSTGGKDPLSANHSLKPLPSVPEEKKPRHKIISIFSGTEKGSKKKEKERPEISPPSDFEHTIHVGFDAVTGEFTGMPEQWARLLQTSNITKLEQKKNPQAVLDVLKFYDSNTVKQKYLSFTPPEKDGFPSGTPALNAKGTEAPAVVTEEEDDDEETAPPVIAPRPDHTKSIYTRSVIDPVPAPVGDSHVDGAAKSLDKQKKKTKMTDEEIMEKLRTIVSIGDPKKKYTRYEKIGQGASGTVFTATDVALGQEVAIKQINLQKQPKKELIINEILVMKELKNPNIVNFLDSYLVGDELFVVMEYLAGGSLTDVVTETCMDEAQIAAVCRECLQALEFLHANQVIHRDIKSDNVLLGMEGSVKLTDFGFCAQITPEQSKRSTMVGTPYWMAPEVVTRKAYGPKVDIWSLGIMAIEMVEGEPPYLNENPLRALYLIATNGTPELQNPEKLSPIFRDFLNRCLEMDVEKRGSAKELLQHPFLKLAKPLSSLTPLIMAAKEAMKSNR
# Procedure: as §1
# PIK3CA(C420R) = target: T25, PIK3CA(C420R) (Homo sapiens, UniProt P42336, C420R)
# T25 construct: purchased Eurofins Discovery (DiscoverX KINOMEscan scanMAX)
# Procedure: as §1
# PIK3CA(H1047L) = target: T26, PIK3CA(H1047L) (Homo sapiens, UniProt P42336, H1047L)
# T26 construct: purchased Eurofins Discovery (DiscoverX KINOMEscan scanMAX)
# Procedure: as §1
# PLK3 = target: T27, PLK3 (Homo sapiens, UniProt Q9H4B4)
# T27 construct: purchased Eurofins Discovery (DiscoverX KINOMEscan scanMAX)
# Procedure: as §1
# RAF1 = target: T28, RAF1 (Homo sapiens, UniProt P04049)
# T28 construct: purchased Eurofins Discovery (DiscoverX KINOMEscan scanMAX)
# T28 sequence (P04049 whole entry): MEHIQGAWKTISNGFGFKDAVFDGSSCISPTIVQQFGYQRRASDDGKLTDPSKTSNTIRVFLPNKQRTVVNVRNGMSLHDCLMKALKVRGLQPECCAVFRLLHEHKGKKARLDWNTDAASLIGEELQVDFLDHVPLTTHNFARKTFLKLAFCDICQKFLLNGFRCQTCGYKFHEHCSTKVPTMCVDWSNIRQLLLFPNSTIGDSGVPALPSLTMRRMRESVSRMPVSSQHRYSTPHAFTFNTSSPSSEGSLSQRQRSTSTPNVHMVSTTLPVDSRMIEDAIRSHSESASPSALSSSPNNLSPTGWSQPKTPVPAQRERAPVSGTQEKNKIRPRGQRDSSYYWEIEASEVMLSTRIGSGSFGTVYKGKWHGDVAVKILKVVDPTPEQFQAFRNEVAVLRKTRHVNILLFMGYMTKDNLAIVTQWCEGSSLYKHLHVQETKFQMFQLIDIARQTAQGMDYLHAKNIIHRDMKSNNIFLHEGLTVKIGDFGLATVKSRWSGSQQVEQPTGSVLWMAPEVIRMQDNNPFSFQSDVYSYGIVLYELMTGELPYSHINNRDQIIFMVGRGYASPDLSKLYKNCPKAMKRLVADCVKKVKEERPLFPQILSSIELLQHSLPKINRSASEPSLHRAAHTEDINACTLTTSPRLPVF
# Procedure: as §1
# RIOK2 = target: T29, RIOK2 (Homo sapiens, UniProt Q9BVS4)
# T29 construct: purchased Eurofins Discovery (DiscoverX KINOMEscan scanMAX)
# Procedure: as §1
# STK36 = target: T30, STK36 (Homo sapiens, UniProt Q9NRP7)
# T30 construct: purchased Eurofins Discovery (DiscoverX KINOMEscan scanMAX)
# Procedure: as §1
# TIE1 = target: T31, TIE1 (Homo sapiens, UniProt P35590)
# T31 construct: purchased Eurofins Discovery (DiscoverX KINOMEscan scanMAX)
# T31 sequence (P35590 22-1138): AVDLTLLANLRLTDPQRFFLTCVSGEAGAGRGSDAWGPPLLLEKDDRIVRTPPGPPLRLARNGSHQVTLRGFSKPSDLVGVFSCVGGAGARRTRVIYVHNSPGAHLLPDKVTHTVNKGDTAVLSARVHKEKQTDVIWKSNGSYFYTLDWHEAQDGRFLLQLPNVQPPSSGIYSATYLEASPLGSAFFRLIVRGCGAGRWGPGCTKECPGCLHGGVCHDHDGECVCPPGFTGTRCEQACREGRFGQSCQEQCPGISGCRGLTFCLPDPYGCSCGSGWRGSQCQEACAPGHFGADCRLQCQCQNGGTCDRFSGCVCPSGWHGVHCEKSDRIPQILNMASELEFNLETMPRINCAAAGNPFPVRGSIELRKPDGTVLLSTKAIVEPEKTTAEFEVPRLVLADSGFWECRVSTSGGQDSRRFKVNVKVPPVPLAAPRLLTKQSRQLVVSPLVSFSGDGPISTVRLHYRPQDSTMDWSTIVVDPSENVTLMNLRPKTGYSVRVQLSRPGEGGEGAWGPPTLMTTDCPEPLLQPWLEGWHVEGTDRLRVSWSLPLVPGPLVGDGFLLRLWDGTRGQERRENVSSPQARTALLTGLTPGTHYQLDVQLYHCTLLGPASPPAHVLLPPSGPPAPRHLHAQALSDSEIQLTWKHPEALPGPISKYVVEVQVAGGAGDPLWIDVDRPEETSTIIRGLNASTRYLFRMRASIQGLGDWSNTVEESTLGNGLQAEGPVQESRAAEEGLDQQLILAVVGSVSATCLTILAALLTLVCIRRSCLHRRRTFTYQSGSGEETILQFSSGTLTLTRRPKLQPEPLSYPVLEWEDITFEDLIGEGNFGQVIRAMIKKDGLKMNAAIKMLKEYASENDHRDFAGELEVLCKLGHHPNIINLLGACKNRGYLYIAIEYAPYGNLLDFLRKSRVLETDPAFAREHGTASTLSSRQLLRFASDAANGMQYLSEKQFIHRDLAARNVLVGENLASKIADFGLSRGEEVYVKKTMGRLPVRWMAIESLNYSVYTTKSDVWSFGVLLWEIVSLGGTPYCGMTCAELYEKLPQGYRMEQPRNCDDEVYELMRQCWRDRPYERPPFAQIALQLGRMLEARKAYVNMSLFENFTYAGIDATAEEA
# Procedure: as §1
# TYRO3 = target: T32, TYRO3 (Homo sapiens, UniProt Q06418)
# T32 construct: purchased Eurofins Discovery (DiscoverX KINOMEscan scanMAX)
# Procedure: as §1
# ULK1 = target: T33, ULK1 (Homo sapiens, UniProt O75385)
# T33 construct: purchased Eurofins Discovery (DiscoverX KINOMEscan scanMAX)
# Procedure: as §1
# YANK1 = target: T34, YANK1 (Homo sapiens, UniProt Q8WU08)
# T34 construct: purchased Eurofins Discovery (DiscoverX KINOMEscan scanMAX)
# Procedure: as §1
smiles,measurement,setting,value
Cc1cc(Nc2ccc(F)c(CC3(C(=O)N4CCC(F)(CN5CCN(c6ccc(N7CCC(=O)NC7=O)cn6)CC5)CC4)CCN(Cc4cccc(Cl)c4F)CC3)n2)n[nH]1 [SK5527],remaining binding at 0.1 µM,BMX; 100 nM,100%
same,remaining binding at 1 µM,BMX; 1000 nM,73%
same,remaining binding at 0.1 µM,CAMK2A; 100 nM,98%
same,remaining binding at 1 µM,CAMK2A; 1000 nM,100%
same,remaining binding at 0.1 µM,CDK3; 100 nM,83%
same,remaining binding at 1 µM,CDK3; 1000 nM,87%
same,remaining binding at 0.1 µM,CHEK2; 100 nM,97%
same,remaining binding at 1 µM,CHEK2; 1000 nM,89%
same,remaining binding at 0.1 µM,CSNK1G3; 100 nM,100%
same,remaining binding at 1 µM,CSNK1G3; 1000 nM,92%
same,remaining binding at 0.1 µM,CTK; 100 nM,100%
same,remaining binding at 1 µM,CTK; 1000 nM,91%
same,remaining binding at 0.1 µM,EPHA7; 100 nM,100%
same,remaining binding at 1 µM,EPHA7; 1000 nM,82%
same,remaining binding at 0.1 µM,EPHA8; 100 nM,91%
same,remaining binding at 1 µM,EPHA8; 1000 nM,81%
same,remaining binding at 0.1 µM,EPHB1; 100 nM,96%
same,remaining binding at 1 µM,EPHB1; 1000 nM,79%
same,remaining binding at 0.1 µM,ERK8; 100 nM,89%
same,remaining binding at 1 µM,ERK8; 1000 nM,92%
same,remaining binding at 0.1 µM,FLT3; 100 nM,90%
same,remaining binding at 1 µM,FLT3; 1000 nM,77%
same,remaining binding at 0.1 µM,FLT3(N841I); 100 nM,83%
same,remaining binding at 1 µM,FLT3(N841I); 1000 nM,76%
same,remaining binding at 0.1 µM,FLT3-autoinhibited; 100 nM,96%
same,remaining binding at 1 µM,FLT3-autoinhibited; 1000 nM,68%
same,remaining binding at 0.1 µM,GRK3; 100 nM,100%
same,remaining binding at 1 µM,GRK3; 1000 nM,100%
same,remaining binding at 0.1 µM,HIPK4; 100 nM,85%
same,remaining binding at 1 µM,HIPK4; 1000 nM,81%
same,remaining binding at 0.1 µM,HPK1; 100 nM,100%
same,remaining binding at 1 µM,HPK1; 1000 nM,100%
same,remaining binding at 0.1 µM,[1]; 100 nM,100%
same,remaining binding at 1 µM,[1]; 1000 nM,80%
same,remaining binding at 0.1 µM,LTK; 100 nM,100%
same,remaining binding at 1 µM,LTK; 1000 nM,100%
same,remaining binding at 0.1 µM,MAP3K4; 100 nM,72%
same,remaining binding at 1 µM,MAP3K4; 1000 nM,87%
same,remaining binding at 0.1 µM,MARK1; 100 nM,100%
same,remaining binding at 1 µM,MARK1; 1000 nM,100%
same,remaining binding at 0.1 µM,MEK5; 100 nM,83%
same,remaining binding at 1 µM,MEK5; 1000 nM,61%
same,remaining binding at 0.1 µM,MKNK2; 100 nM,59%
same,remaining binding at 1 µM,MKNK2; 1000 nM,68%
same,remaining binding at 0.1 µM,NLK; 100 nM,94%
same,remaining binding at 1 µM,NLK; 1000 nM,82%
same,remaining binding at 0.1 µM,PAK2; 100 nM,100%
same,remaining binding at 1 µM,PAK2; 1000 nM,79%
same,remaining binding at 0.1 µM,PIK3CA(C420R); 100 nM,63%
same,remaining binding at 1 µM,PIK3CA(C420R); 1000 nM,100%
same,remaining binding at 0.1 µM,PIK3CA(H1047L); 100 nM,63%
same,remaining binding at 1 µM,PIK3CA(H1047L); 1000 nM,100%
same,remaining binding at 0.1 µM,PLK3; 100 nM,100%
same,remaining binding at 1 µM,PLK3; 1000 nM,86%
same,remaining binding at 0.1 µM,RAF1; 100 nM,100%
same,remaining binding at 1 µM,RAF1; 1000 nM,100%
same,remaining binding at 0.1 µM,RIOK2; 100 nM,93%
same,remaining binding at 1 µM,RIOK2; 1000 nM,64%
same,remaining binding at 0.1 µM,STK36; 100 nM,71%
same,remaining binding at 1 µM,STK36; 1000 nM,94%
same,remaining binding at 0.1 µM,TIE1; 100 nM,89%
same,remaining binding at 1 µM,TIE1; 1000 nM,68%
same,remaining binding at 0.1 µM,TYRO3; 100 nM,80%
same,remaining binding at 1 µM,TYRO3; 1000 nM,89%
same,remaining binding at 0.1 µM,ULK1; 100 nM,92%
same,remaining binding at 1 µM,ULK1; 1000 nM,91%
same,remaining binding at 0.1 µM,YANK1; 100 nM,100%
same,remaining binding at 1 µM,YANK1; 1000 nM,77%
